System: phenylquinone-induced writhing reactions
Experiment: phenylquinone-induced writhing in mice
Assay type: in vivo
Details: male NMRI mice, phenylquinone i.p. 10 minutes after compound, writhing counted 5-20 minutes after phenylquinone
Procedure: The investigation into analgesic efficacy was performed by phenylquinone-induced writhing in mice (modified after: I. C. Hendershot, J. Forsaith, J. Pharmacol. Exp. There. 125, 237–240 (1959)). The corresponding literature description is hereby introduced as a reference and is deemed to be part of the disclosure.
Male NMRI mice weighing from 25 to 30 g were used for this purpose. Groups of 10 animals per substance dose received, 10 minutes after intravenous administration of the compounds tested, 0.3 ml/mouse of a 0.02% aqueous solution of phenylquinone (phenylbenzoquinone, Sigma, Deisenhofen; solution prepared with addition of 5% of ethanol and stored in a water bath at 45° C.) administered intraperitoneally. The animals were placed individually in observation cages. A push button counter was used to record the number of pain-induced stretching movements (writhing reactions=straightening of the torso with stretching of the rear extremities) for 5–20 minutes after phenylquinone administration. The control was provided by animals who received only physiological common salt solution.
The compounds were tested at the standard dosage of 10 mg/kg. Inhibition of the writhing reactions by a substance was calculated according to the following formula: […]
The in-depth investigation into analgesic efficacy was performed using phenylquinone-induced writhing in mice, as described above.

SMILES	% inhibition of writhing reactions 10 mg/kg i.v. [%]
COc1cccc(C2(O)CCC(OC(=O)CC3=CCC(=O)N(C)c4cc(Cl)ccc43)CC2CN(C)C)c1 (stereo not drawn) [Example 4, 2′-(8-chloro-1-methyl-2-oxo-2,3-dihydro-1H-benzo[b]azepin-5-yl) acetic acid [3″-(N,N-dimethylaminomethyl)-4″-hydroxy-4″-(m-methoxyphenyl)cyclohexyl]ester]	39
COc1cccc(C2(O)CCC(NC(=O)CC3=CCC(=O)N(C)c4cc(Cl)ccc43)CC2CN(C)C)c1 (stereo not drawn) [Example 6, 2′-(8-chloro-1-methyl-2-oxo-2,3-dihydro-1H-benzo[b]azepin-5-yl)-N-[3″-(N,N-dimethylaminomethyl)-4″-hydroxy-4″-(m-methoxyphenyl)cyclohexyl]acetamide]	25
COc1cccc(C2(O)CCC(OC(=O)CC3=CCC(=O)Nc4cc(Cl)ccc43)CC2CN(C)C)c1 (stereo not drawn) [Example 5, 2′-(8-chloro-2-oxo-2,3-dihydro-1H-benzo[b]azepin-5-yl) acetic acid [3″-(N,N-dimethylaminomethyl)-4″-hydroxy-4″-(m-methoxyphenyl)cyclohexyl]ester]	63
